Laboratory results reported in US20190030018A1 (Celgene Corporation, priority 2017, published 2019).
Like-named read-outs stand apart in the source and are kept apart here.

What was measured:
[1] = test system: human QGP1 pancreatic somatostatinoma xenografts; details: mouse, in vivo
Experimental: Treatment began on Day 1 in nine groups of mice (n=10) with established subcutaneous QGP1 tumors. […] Tumors were measured using calipers twice each week to the end of the study on Day 52. Three tumors at or near the group median tumor volume 2000 mm^3 endpoint were sampled from each group.
Treatment efficacy was based on tumor growth inhibition (TGI), defined as the difference between the final (Day 52) median tumor volumes (MTVs) of treated and control mice. The results were analyzed utilizing the Mann-Whitney U-test, and were deemed statistically significant at P≤0.05. Drug tolerability was assessed by body weight measurements and by frequent observation of treated animals.

[2] = test system: GSPT1 expression, mTOR activation, Mcl-1 expression and Caspase-3 cleavage in AML cells; experiment: Immunoblot analysis of AML cells treated with Compound 1 and everolimus; assay type: cell-based; details: AML cell lines HNT-34 and KG1, Compound 1 alone
Source text: Whole cell extracts were collected and subjected to immunoblot analysis.

[3] = test system: stomach cancer cell line GA0087; experiment: GA0087 PDX model ex vivo 3D methylcellulose CellTiter-Glo cell viability assay (IC50, matrix combination, Combination Index)
Experimental: (§1) Materials and Methods: The stomach cancer cell line GA0087 was used in this study. […] Culture media was purchased from GIBCO or Sigma, USA.
(§2) Everolimus was obtained from Selleck. Cisplatin was used as a reference drug, and was obtained from Hospira Australia pty Ltd.
(§3) PDX tumor models were maintained at Crownbio HuPrime animal facility. Tumor growth was monitored weekly. Tumor volumes were measured in two dimensions using a caliper, and the volume was expressed in mm^3 using the formula: V=0.5 a×b^2 where a and b are the long and short diameters of the tumor, respectively. • 2. Mouse xenografts at tumor volume around 800 mm^3 were housed with sterile surgical tools and tumor tissue was minced into tiny pieces with scissors in small amount of PBS on a new tissue culture plate. • 3. The cell suspension was filtered through Falcon cell strainer. The nylon mesh was washed 3-5 times with PBS. • 4. The cell suspension was centrifuged at 1000 rpm for 5 minutes and the pellet was washed with PBS and centrifuged again. • 5. Red blood cells were removed using red blood cell lysis buffer. • 6. The cell suspension was centrifuged at 1000 rpm for 5 minutes and the pellet was washed with PBS and centrifuged again. • 7. The cell pallet was re-suspended with appropriate cell culture media for different cells. • 8. Cells were counted with Countstar by trypan blue exclusion.
(§4) Day −1: Cell Plating • 1. The cells were harvested during the logarithmic growth period. The harvested cells were cultured with appropriate cell media and centrifuged at 1000 rpm for 3 minutes. […] (Cell concentration was adjusted according to the data base or density optimization assay). • 3. 3.5 mL of cell suspension was mixed with 6.5 mL of 1% methylcellulose. […] 90 μL cell suspensions were added to 96-well plates according to plate map with final cell density. Two duplicate plates were set up: one for day 0 reading (T0) and the other was cultured in incubator for reading at the end point.
(§5) Day 0: T0 Plate Reading and Compound Treatment • 5.10 μL culture medium was added to T0 plate in each well for T0 reading. • 6.100 μl CellTiter-Glo® Reagent was added to each well. • 7. The contents were mixed for 2 minutes on an orbital shaker to facilitate cell lysis. • 8. The plates were allowed to incubate at room temperature for 10 minutes to stabilize luminescent signal. • 9. A backseal black sticker was placed to the bottom of each plate. • 10. The luminescence was read using EnVision Multi Label Reader. • 11.
(§6) The solutions were stored at −20° C. […] The response score was calculated by normalizing to DMSO control. The combination index (CI) was calculated using Chou and Talalay method, wherein a CI of less than 1 indicates synergy. Cisplatin was used as control in the single compound dose response, but was not included in the combination test.
(§7) After drug incubation, pictures for representative wells were taken using a phase contrast microscope. • 13. 100 μL CellTiter-Glo® Reagent was added to each well. • 14. Contents were mixed for 2 minutes on an orbital shaker to facilitate cell lysis. • 15. The plates were allowed to incubate at room temperature for 10 minutes to stabilize luminescent signal. • 16. Backseal black sticker was placed to the bottom of each plate. • 17. Luminescence was recorded using EnVision Multi Label Reader.
(§8) In order to calculate IC50, a dose-response curve was fitted using nonlinear regression model with a sigmoidal dose response. The formula of surviving rate is shown below, and the IC50 was automatically produced by GraphPad Prism 5.0.
(§9) The surviving rate (%)=(LumTest article−LumMedium control)/(LumNone treated−LumMedium control)×100%.

[4] = as above
Experimental: as §1, §2, §3, §4, §5, §6, §7, §8, §9

O=C1CCC(N2Cc3cc(CNC(=O)C(F)(F)c4ccc(Cl)cc4)ccc3C2=O)C(=O)N1 (stereo not drawn) [Compound 1, 2-(4-chlorophenyl)-N-((2-(2,6-dioxopiperidin-3-yl)-1-oxoisoindolin-5-yl)methyl)-2,2-difluoroacetamide]
weight loss [1]: 1.6-6.8%
GSPT1 degradation, Caspase-3 cleavage and Mcl-1 loss [2]: sufficient to induce robust GSPT1 degradation, Caspase-3 cleavage, and Mcl-1 loss
Maximal Inhibition ([3]; GA0087-1st experiment): 90.71%
Maximal Inhibition ([3]; GA0087-2nd experiment): 92.41%
activity in the GA0087 model ([3]; ex vivo 3D assay, 7 days, single agent): shows activity
IC50 ([4]; read-out: Absolute IC50, GA0087-1st experiment): 20.3 nM
IC50 ([4]; read-out: Absolute IC50, GA0087-2nd experiment): 16.4 nM
IC50 ([4]; read-out: Relative IC50, GA0087-1st experiment): 16.3 nM
IC50 ([4]; read-out: Relative IC50, GA0087-2nd experiment): 15.2 nM
